From patent US8551984B2, “Aminopyrimidines as SYK inhibitors” (Merck Sharp & Dohme Corp., priority 2009, dated 2013)

Molecular target: recombinant human SYK (GST-hSYK fusion protein) (Homo sapiens, UniProt P43405)
Assay: biochemical
[1] = rhSYK Activity (IC50), recombinant human GST-SYK 5 pM, ATP 25 μM, biotinylated substrate peptide 250 nM, HTRF, 10-dose titration

Source text: Homogeneous Time-Resolved Fluorescence (HTRF) Assay for the Recombinant Human SYK Enzyme:

Cc1cc(Nc2nccc(C(F)(F)F)n2)cc(-c2cnc(C(=O)N(C)CC(O)CO)s2)c1 (stereo not drawn) [Example 87A-26]
IC50 [1]: < 100 nM

Cc1cc(Nc2nccc(C(F)(F)F)n2)cc(-c2cnc(C3(O)CCCN(C(=O)c4cnon4)CC3)s2)c1 (single isomer, unassigned) [Example 54D-38]
IC50 (rhSYK Activity, Table 54D): < 100 nM

Cc1cc(Nc2nccc(C(F)(F)F)n2)cc(-c2cnc(C3=CC(=O)CCC3)s2)c1 [Example 36A-7]
IC50 (rhSYK Activity, Table 36A): < 100 nM

Cc1cc(Nc2nccc(C(F)(F)F)n2)cc(-c2cnc(C3(O)CCN(C(=O)CC(C)O)CC3)s2)c1 (stereo not drawn) [Example 54A-27]
IC50 (RHSYK Activity, Table 54A): < 100 nM

CN1CCCCCC1c1ncc(-c2cccc(Nc3nccc(C(F)(F)F)n3)c2)s1 (stereo not drawn) [Example 21-18]
IC50 (rhSYK Activity, Table 21): 100 to 1000 nM

Cc1cc(Nc2nccc(C(F)(F)F)n2)cc(-c2cnc(C3(O)CCC(NC(=O)CC(N)C(F)(F)F)CC3)s2)c1 (stereo not drawn) [Example 54E-37]
IC50 (rhSYK Activity, Table 54E): < 100 nM

COc1ccnc(Nc2cc(C)cc(-c3cnc(C4(O)CCC(C(=O)O)CC4)s3)c2)n1 (stereo not drawn) [Example 33A-35]
IC50 (rhSYK Activity, Table 33-A): < 100 nM

Cc1cc(Nc2nccc(C(F)(F)F)n2)cc(-c2cnc([C@]3(O)CC[C@@H](NC(=O)c4c[nH]cn4)CC3)s2)c1 [Example 54E-5]
IC50 (rhSYK Activity, Table 54E): < 100 nM

Cc1cc(Nc2nccc(C(F)(F)F)n2)cc(-c2cnc(C3(O)CCC(NC(=O)Cn4cncn4)CC3)s2)c1 (stereo not drawn) [Example 54E-11]
IC50 (rhSYK Activity, Table 54E): < 100 nM

Cc1cc(Nc2nccc(OC(C)C)n2)cc(-c2cnc([C@]3(O)CC[C@@H](C(=O)OC(C)(C)C)CC3)s2)c1 [Example 33A-34]
IC50 (rhSYK Activity, Table 33-A): 100 to 1000 nM

Cc1cc(Nc2nccc(C(F)(F)F)n2)cc(-c2cnc(C3(O)CCCN(C(=O)C(O)CO)CC3)s2)c1 (stereo not drawn) [Example 54D-27]
IC50 (rhSYK Activity, Table 54D): < 100 nM

Cc1cc(Nc2nccc(C(F)(F)F)n2)cc(-c2cnc(C3(O)CCN(C(=O)CC(N)C(F)(F)F)CC3)s2)c1 (stereo not drawn) [Example 54A-58]
IC50 (RHSYK Activity, Table 54A): < 100 nM

Cc1cc(Nc2nccc(OCC3(C)CCCNC3)n2)cc(-c2cnc(C3(O)CCC3)s2)c1 (stereo not drawn) [Example 108A-24]
IC50 (rhSYK Activity, Table 108A): < 100 nM

C=Cc1ccnc(Nc2cc(C)cc(-c3cnc(C4(O)CCC4)s3)c2)n1 [Example 104, 1-(5-{3-[(4-ethenylpyrimidin-2-yl)amino]-5-methylphenyl}-1,3-thiazol-2-yl)cyclobutanol]
IC50 [1]: < 100 nM

Cc1cc(Nc2nccc(OCC3CNC3)n2)cc(-c2cnc(C3(O)CCC3)s2)c1 [Example 94A-27]
IC50 [1]: < 100 nM

Cc1cc(Nc2nccc(C=CC(C)(C)O)n2)cc(-c2cnc(C3(O)CCC(C(=O)O)C(C)(C)C3)s2)c1 (stereo not drawn) [Example 100A-23]
IC50 [1]: < 100 nM

Cc1cc(Nc2nccc(C(F)(F)F)n2)cc(-c2cnc(C3(O)CCC(NC(=O)C(C)(CO)CO)CC3)s2)c1 (stereo not drawn) [Example 54E-20]
IC50 (rhSYK Activity, Table 54E): < 100 nM

CCOC(=O)C1(Cc2ncc(-c3cc(C)cc(Nc4nccc(C(F)(F)F)n4)c3)s2)CCNC1=O (stereo not drawn) [Example 91, Ethyl 3-{[5-(3-methyl-5-{[4-(trifluoromethyl)pyrimidin-2-yl]amino}phenyl)-1,3-thiazol-2-yl]-methyl}-2-oxopyrrolidine-3-carboxylate]
IC50 [1]: < 100 nM

COC(=O)C1CCC(C(=O)NC2CCC(O)(c3ncc(-c4cc(C)cc(Nc5nccc(C(F)(F)F)n5)c4)s3)CC2)CC1 (stereo not drawn) [Example 54E-38]
IC50 (rhSYK Activity, Table 54E): < 100 nM

Cc1cc(Nc2ncc(Cl)cn2)cc(-c2cnc(C3(O)CCC(C(=O)O)C(C)(C)C3)s2)c1 (single isomer, unassigned) [Example 33A-43]
IC50 (rhSYK Activity, Table 33-A): < 100 nM

COCC(O)CNC(=O)c1ncc(-c2cc(C)cc(Nc3nccc(C(F)(F)F)n3)c2)s1 (stereo not drawn) [Example 87A-24]
IC50 [1]: < 100 nM

Cc1cc(Nc2nccc(C(F)(F)F)n2)cc(-c2cnc(C3(O)CCN(C(=O)C4CNC(=O)N4)CC3)s2)c1 (stereo not drawn) [Example 54A-39]
IC50 (RHSYK Activity, Table 54A): < 100 nM

COc1ccnc(Nc2cc(C)cc(-c3cnc(C4(O)CCN(C(N)=O)CC4)s3)c2)n1 [Example 54A-19]
IC50 (RHSYK Activity, Table 54A): < 100 nM

Cc1cc(Nc2nccc(C(F)(F)F)n2)cc(-c2cnc(C3(O)CC(C)(C)C(C(=O)O)CC3O)s2)c1 (stereo not drawn) [142(1), 1,4-Trans, 1,5-trans-4,5-dihydroxy-2,2-dimethyl-4-[5-(3-methyl-5-{[4-(trifluoromethyl)pyrimidin-2-yl]amino}phenyl)-1,3-thiazol-2-yl]cyclohexanecarboxylic acid]
IC50 [1]: < 100 nM

Cc1cc(Nc2nccc(OC3CCC(OCc4ccccc4)CC3)n2)cc(-c2cnc(C(C)(O)C(F)(F)F)s2)c1 (stereo not drawn) [Example 94B-3, 2-(5-{3-[(4-{[4-(benzyloxy)cyclohexyl]oxy}pyrimidin-2-yl)amino]-5-methylphenyl}-1,3-thiazol-2-yl)-1,1,1-trifluoropropan-2-ol]
IC50 [1]: 100 to 1000 nM

CCOC(=O)C1CC(C)C(O)(c2ncc(-c3cc(C)cc(Nc4nccc(C)n4)c3)s2)CC1C (stereo not drawn) [Example 113B-7]
IC50 (rhSYK Activity, Table 113B): < 100 nM

CCOC(=O)C1CCC(O)(c2ncc(-c3cc(C)cc(Nc4nccc(OCCCOC)n4)c3)s2)CC1C (stereo not drawn) [Example 113A-47]
IC50 (rhSYK Activity, Table 113A): < 100 nM

Cc1cc(Nc2nccc(C(F)(F)F)n2)cc(-c2cnc(C3(O)CCN(C(=O)OC(C)(C)C)C3)s2)c1 (stereo not drawn) [54B-4]
IC50 (rhSYK Activity, Table 54B): 100 to 1000 nM

Cc1cc(Nc2nccc(C(F)(F)F)n2)cc(-c2cnc(C(C)(C)S(N)(=O)=O)s2)c1 [74A-1]
IC50 (rhSYK Activity, Table 74A): < 100 nM

COC(=O)C1CCC(C(=O)N2CCCC(O)(c3ncc(-c4cc(C)cc(Nc5nccc(C(F)(F)F)n5)c4)s3)CC2)CC1 (stereo not drawn) [Example 54D-111]
IC50 (rhSYK Activity, Table 54D): < 100 nM

CCOC(=O)C1CC=C(c2ncc(-c3cccc(Nc4nccc(C(F)(F)F)n4)c3)s2)CC1 (stereo not drawn) [Example 36A-1]
IC50 (rhSYK Activity, Table 36A): 100 to 1000 nM

Cc1cc(Nc2nccc(C(F)(F)F)n2)cc(-c2cnc(C3(O)CCN(C(=O)Cn4cncn4)CC3)s2)c1 [Example 54A-37]
IC50 (RHSYK Activity, Table 54A): < 100 nM

Cc1cc(Nc2nccc(C(F)(F)F)n2)cc(-c2cnc(C3(O)CCN(C(=O)CCn4cncn4)CC3)s2)c1 [Example 54A-51]
IC50 (RHSYK Activity, Table 54A): < 100 nM

Cc1cc(Nc2nccc(C(F)(F)F)n2)cc(-c2cnc(CN3CCCNC(=O)C3)s2)c1 [Example 88B-8]
IC50 [1]: < 100 nM

Cc1cc(Nc2nccc(C)n2)cc(-c2cnc([C@]3(O)CC[C@H](C(=O)O)CC3)s2)c1 [Example 33A-31]
IC50 (rhSYK Activity, Table 33-A): < 100 nM

Cc1cc(Nc2nccc(C(F)(F)F)n2)cc(-c2cnc(C3(O)CCN(C(=O)Cc4c[nH]cn4)CC3)s2)c1 [Example 54A-36]
IC50 (RHSYK Activity, Table 54A): < 100 nM

Cc1cc(Nc2nccc(C(F)(F)F)n2)cc(-c2cnc(C3CCS(=O)(=O)CC3)s2)c1 [Example 137, N-{3-[2-(1,1-dioxidotetrahydro-2H-thiopyran-4-yl)-1,3-thiazol-5-yl]-5-methylphenyl}-4-(trifluoromethyl)pyrimidin-2-amine]
IC50 [1]: < 100 nM

Cc1cc(Nc2nccc(C(F)(F)F)n2)cc(-c2cnc(CN3CCN(C)C3=O)s2)c1 [Example 92-3]
IC50 [1]: < 100 nM

Cc1cc(Nc2nccc(C(F)(F)F)n2)cc(-c2cnc(C(C)(O)c3ccc(OCC(=O)O)cc3)s2)c1 (stereo not drawn) [Example 33D-12]
IC50 (rhSYK Activity, Table 33D): < 100 nM

COC(=O)CN1CCC(O)(c2ncc(-c3cc(C)cc(Nc4nccc(C(F)(F)F)n4)c3)s2)CC1 [Example 54A-70]
IC50 (RHSYK Activity, Table 54A): < 100 nM

CC(=O)N1CCCC(O)(c2ncc(-c3cc(C)cc(Nc4nccc(C(F)(F)F)n4)c3)s2)CC1 (stereo not drawn) [Example 54D-2]
IC50 (rhSYK Activity, Table 54D): < 100 nM

Cc1cc(Nc2nccc(OCCN3CCCNCC3)n2)cc(-c2cnc(C3(O)CCC3)s2)c1 [Example 108A-19]
IC50 (rhSYK Activity, Table 108A): < 100 nM

CC1(C)CC(O)(c2ncc(-c3cccc(Nc4nccc(C(F)(F)F)n4)c3)s2)CCC1C(=O)O (single isomer, unassigned) [Example 33A-66]
IC50 (rhSYK Activity, Table 33-A): < 100 nM

Cc1cc(Nc2nccc(C(F)(F)F)n2)cc(-c2cnc(C3(O)CC4CCC(C3)C4C(=O)O)s2)c1 (stereo not drawn) [Example 33C-2]
IC50 (rhSYK Activity, Table 33C): < 100 nM

CC(O)c1ncc(-c2cccc(Nc3nccc(C(F)(F)F)n3)c2)s1 (stereo not drawn) [Example 15-5, 1-[5-(3-{[4-(Trifluoromethyl)pyrimidin-2-yl]amino}phenyl)-1,3-thiazol-2-yl]ethanol]
IC50 (rhSYK Activity, Table 15): < 100 nM

Cc1cc(Nc2nccc(C(F)(F)F)n2)cc(-c2cnc(C(=O)NCCc3c[nH]cn3)s2)c1 [Example 87A-15]
IC50 [1]: < 100 nM

Cc1cc(Nc2nccc(C(F)(F)F)n2)cc(-c2cnc(-c3cnn(CC4CNC(=O)O4)c3)s2)c1 (stereo not drawn) [Example 115-7]
IC50 (rhSYK Activity, Table 115): < 100 nM

Cc1cc(Nc2nccc([C@H](C)F)n2)cc(-c2cnc([C@@]3(O)CC[C@H](C(=O)O)C(C)(C)C3)s2)c1 [116A-40]
IC50 (rhSYK Activity, Table 116A): < 100 nM

COC(=O)C(C)(C)CCC(C)(O)c1ncc(-c2cc(C)cc(Nc3nccc(C(F)(F)F)n3)c2)s1 (stereo not drawn) [Example 33D-4]
IC50 (rhSYK Activity, Table 33D): < 100 nM

Cc1cc(Nc2nccc(C(F)(F)F)n2)cc(-c2cnc(C(NC(N)=O)(C3CC3)C3CC3)s2)c1 [Example 64-10]
IC50 (rhSYK Activity, Table 64, second part (structure)): < 100 nM

Cc1cc(Nc2nccc(C(F)(F)F)n2)cc(-c2cnc(C3(N[S+]([O-])C(F)F)COC3)s2)c1 (stereo not drawn) [Example 61B-8]
IC50 (rhSYK Activity, Table 61B): < 100 nM

Cc1cc(Nc2nccc(C(F)(F)F)n2)cc(-c2cnc(CNCC(O)C(F)F)s2)c1 (stereo not drawn) [Example 88A-2]
IC50 [1]: < 100 nM

COc1nc(Nc2cc(C)cc(-c3cnc([C@]4(O)CC[C@@H](C(=O)O)CC4)s3)c2)ncc1F [116A-5]
IC50 (rhSYK Activity, Table 116A): < 100 nM

Cc1cc(Nc2nccc(C(F)(F)F)n2)cc(-c2cnc([C@]3(O)CC[C@@H](NC(=O)c4ccc(O)cn4)CC3)s2)c1 [Example 54E-24]
IC50 (rhSYK Activity, Table 54E): < 100 nM

Cc1cc(Nc2nccc(C(F)(F)F)n2)cc(-c2cnc(C(C)(O)c3ccc(C(=O)O)nc3)s2)c1 (stereo not drawn) [Example 149, 5-{1-Hydroxy-1-[5-(3-methyl-5-{[4-(trifluoromethyl)pyrimidin-2-yl]amino}phenyl)-1,3-thiazol-2-yl]ethyl}pyridine-2-carboxylic acid]
IC50 [1]: < 100 nM

Cc1cc(Nc2nccc(C(F)(F)F)n2)cc(-c2cnc(C3(O)CCN(C(=O)Cc4ccccn4)CC3)s2)c1 [Example 54A-46]
IC50 (RHSYK Activity, Table 54A): < 100 nM

CCOC(=O)C1CCC(O)(c2ncc(-c3cc(C)cc(Nc4nccc(OCCOC)n4)c3)s2)CC1C (stereo not drawn) [Example 113A-43]
IC50 (rhSYK Activity, Table 113A): < 100 nM
